Source: US7923465B2, “Cannabinoid receptor ligands, pharmaceutical compositions containing them, and process for their preparation” (priority 2005, dated 2011)

Biological target: hCB1 (Homo sapiens, UniProt P21554)
Experiment: In vitro binding assay using hCB1-CHO membranes, [3H]-CP-55,940 displacement (Protocol II)
Parameters: expressed in transfected cells; host or cells: CHO (hCB1-CHO, generated in-house)
How it was run: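 Incubated 1 h at 37° C, stopped by rapid vacuum filtration on PEI-precoated GF/B filters, bound radioactivity counted by liquid scintillation.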

Sequence of hCB1 (P21554 whole entry): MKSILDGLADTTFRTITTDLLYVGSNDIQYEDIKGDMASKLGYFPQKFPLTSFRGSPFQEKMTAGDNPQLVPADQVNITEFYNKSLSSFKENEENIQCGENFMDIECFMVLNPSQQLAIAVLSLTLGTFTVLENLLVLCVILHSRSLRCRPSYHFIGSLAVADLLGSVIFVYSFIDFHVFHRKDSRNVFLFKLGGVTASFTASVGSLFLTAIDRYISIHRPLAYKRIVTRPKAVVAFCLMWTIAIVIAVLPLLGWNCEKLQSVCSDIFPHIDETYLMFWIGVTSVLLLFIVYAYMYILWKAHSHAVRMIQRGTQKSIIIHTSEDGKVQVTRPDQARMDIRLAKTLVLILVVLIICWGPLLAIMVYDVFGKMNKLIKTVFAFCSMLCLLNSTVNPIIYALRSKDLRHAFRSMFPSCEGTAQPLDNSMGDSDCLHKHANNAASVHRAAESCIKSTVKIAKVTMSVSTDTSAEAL

**Q.** With `O=C(NN1CCCCC1)c1nn(-c2ccc(Cl)cc2)c2c1C1CC3CC(C1)CC2C3` [Example 140, N(7)-Piperidino-5-(4′-chlorophenyl)-5,6-diazatetracyclo[7.3.1.1^3,11.0^4,8]tetradeca-4(8)-6-diene-7-carboxamide] as the compound, how does the “% Displacement Protocol II” value read?
**A.** 57.85%
